Reference: ChEMBL document CHEMBL1137818, “Structure and spasmolytic activity of eucalyptanoic acid from Eucalyptus camaldulensis var. obtusa and synthesis of its active derivative from oleanolic acid” (2002)

Tests used:
[1] = tested on: Jejunum; experiment: Spasmolytic activity in rabbit jejunum assessed as inhibition of K+-induced muscle contraction at 1 mg/mL after 30 mins; format: functional; details: Oryctolagus cuniculus, 0.5 h
[2] = tested on: Jejunum; experiment: Spasmolytic activity in rabbit jejunum assessed as inhibition of calcium influx-mediated spontaneous muscle contraction at 1 mg/mL after 30 mins; format: functional; details: Oryctolagus cuniculus, 0.5 h

Compound `CC1(C)CC[C@]2(C(=O)O)CC[C@]3(C)C(=CC=C4[C@@]5(C)CC[C@H](O)C(C)(C)[C@@H]5CC[C@]43C)[C@H]2C1` [EUCALYPTANOIC ACID] has an inhibition at 1000 µg/mL [1] of 31.1% and an inhibition at 1000 µg/mL [2] of 58.2%.
`COC(=O)[C@]12CCC(C)(C)C[C@@H]1C1=CC[C@@H]3[C@@]4(C)CC[C@H](OC(C)=O)C(C)(C)[C@@H]4CC[C@@]3(C)[C@]1(C)CC2` [METHYL ACETYL OLEANOLATE] showed an inhibition at 1000 µg/mL [1] of 35.5% and an inhibition at 1000 µg/mL [2] of 67.7%.
In the case of `COC(=O)[C@]12CCC(C)(C)C[C@@H]1C1=CC=C3[C@@]4(C)CC[C@H](OC(C)=O)C(C)(C)[C@@H]4CC[C@@]3(C)[C@]1(C)CC2` [METHYLACETYLEUCALYPTANOATE], the inhibition at 1000 µg/mL [1] is reported as 85.9% and the inhibition at 1000 µg/mL [2] is reported as 95.3%.
